Inconclusive results and toxic doses are left out.
System: P388 leukemia ip, CD2F1 mice, survival T/C
Assay: NCI In Vivo Anticancer Drug Screen. Data for tumor model P388 Leukemia (intraperitoneal) in CD2F1 (CDF1) mice
Details: endpoint: median survival time, higher = longer survival
Summary of the method: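 Mice carrying the transplanted tumor received test compound or vehicle. Survival was recorded in each group, and the value is the treated-group measurement divided by that of the vehicle-treated control group.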

[1] = dose: 6.25 mg/kg/injection, schedule: Q01DX005 (ip), vehicle: saline with Tween-80
[2] = dose: 100.0 mg/kg/injection, schedule: Q01DX009 (ip), vehicle: saline with Tween-80
[3] = dose: 200.0 mg/kg/injection, schedule: Q01DX009 (ip), vehicle: saline with Tween-80
[4] = dose: 50.0 mg/kg/injection, schedule: Q01DX009 (ip), vehicle: saline with Tween-80
[5] = dose: 12.5 mg/kg/injection, schedule: Q01DX001 (ip), vehicle: saline
[6] = dose: 25.0 mg/kg/injection, schedule: Q01DX001 (ip), vehicle: saline
[7] = dose: 50.0 mg/kg/injection, schedule: Q01DX009 (ip), vehicle: Klucel (hydroxypropylcellulose) (HPC)
[8] = dose: 100.0 mg/kg/injection, schedule: Q01DX009 (ip), vehicle: Klucel (hydroxypropylcellulose) (HPC)
[9] = dose: 200.0 mg/kg/injection, schedule: Q01DX009 (ip), vehicle: Klucel (hydroxypropylcellulose) (HPC)
[10] = dose: 50.0 mg/kg/injection, schedule: Q01DX005 (ip), vehicle: Klucel (hydroxypropylcellulose) (HPC)
[11] = dose: 100.0 mg/kg/injection, schedule: Q01DX005 (ip), vehicle: Klucel (hydroxypropylcellulose) (HPC)
[12] = dose: 200.0 mg/kg/injection, schedule: Q01DX005 (ip), vehicle: Klucel (hydroxypropylcellulose) (HPC)

In the case of N#CN(Cc1ccccc1)Cc1ccccc1.[Cl][Sn]([c]1ccccc1)([c]1ccccc1)[c]1ccccc1, the T/C (dose: 3.12 mg/kg/injection, schedule: Q01DX005 (ip), vehicle: saline with Tween-80) is reported as 98 % of control and the T/C [1] is reported as 95 % of control.
With O=C(N/N=C(/C(=N/NC(=O)c1ccccc1)c1ccccc1)c1ccccc1)c1ccccc1 the T/C [2] was 100 % of control, the T/C [3] was 95 % of control and the T/C (dose: 400.0 mg/kg/injection, schedule: Q01DX009 (ip), vehicle: saline with Tween-80) was 90 % of control.
For OCc1ccc(Cl)cc1Cl, the T/C [4] was 104 % of control, the T/C [2] was 95 % of control and the T/C [3] was 109 % of control.
In the case of O=N[O-].O=[N+]([O-])O.[Co+3].[NH2-].[NH2-].[NH2-].[NH2-].[NH2-], the T/C [5] is reported as 97 % of control and the T/C [6] is reported as 110 % of control.
In the case of COc1ccc(C2=NOP(c3ccccc3)(c3ccccc3)(c3ccccc3)C2)cc1, the T/C (dose: 1.56 mg/kg/injection, schedule: Q01DX009 (ip), vehicle: water) is reported as 102 % of control, the T/C (dose: 3.13 mg/kg/injection, schedule: Q01DX009 (ip), vehicle: water) is reported as 106 % of control and the T/C (dose: 6.25 mg/kg/injection, schedule: Q01DX009 (ip), vehicle: water) is reported as 90 % of control. For the same compound, the T/C (dose: 12.5 mg/kg/injection, schedule: Q01DX009 (ip), vehicle: water) was 107 % of control, the T/C (dose: 25.0 mg/kg/injection, schedule: Q01DX009 (ip), vehicle: other) was 99 % of control and the T/C (dose: 25.0 mg/kg/injection, schedule: Q01DX009 (ip), vehicle: water) was 104 % of control. For the same compound, the T/C [7] was 105 % of control, the T/C [8] was 101 % of control and the T/C [9] was 101 % of control.
CCN(CC)CCNc1ccc(COC(=O)OC)c2oc3ccccc3c(=O)c12 was tested, and the T/C [1] was 115 % of control, the T/C (dose: 12.5 mg/kg/injection, schedule: Q01DX005 (ip), vehicle: saline with Tween-80) was 111 % of control and the T/C (dose: 25.0 mg/kg/injection, schedule: Q01DX005 (ip), vehicle: saline with Tween-80) was 97 % of control.
With COc1ccc2c(c1)CCC1C2CCC2(C)C1CCC2(C)N(C)C (stereo not drawn) the T/C (dose: 6.25 mg/kg/injection, schedule: Q01DX005 (ip), vehicle: Klucel (hydroxypropylcellulose) (HPC)) was 102 % of control and the T/C (dose: 12.5 mg/kg/injection, schedule: Q01DX005 (ip), vehicle: Klucel (hydroxypropylcellulose) (HPC)) was 102 % of control.
In the case of CC1=C(CCC(=O)O)c2cc3nc(cc4[nH]c(cc5[nH]c(cc1n2)c(C)c5C1CC1C(=O)O)c(C)c4C1CC1C(=O)O)C(C)=C3CCC(=O)O (stereo not drawn), the T/C [10] is reported as 106 % of control, the T/C [11] is reported as 101 % of control and the T/C [12] is reported as 95 % of control.
For O=C(OCC(Cl)(Cl)Cl)N1CCCCC1, the T/C (dose: 25.0 mg/kg/injection, schedule: Q01DX009 (ip), vehicle: saline with Tween-80) was 98 % of control, the T/C [4] was 92 % of control and the T/C [2] was 102 % of control.
In the case of NCC(=O)CN.[Cl-].[Cl-].[Pt+2], the T/C (dose: 25.0 mg/kg/injection, schedule: Q04DX003 (ip), vehicle: other) is reported as 121 % of control, the T/C (dose: 200.0 mg/kg/injection, schedule: Q04DX003 (ip), vehicle: other) is reported as 158 % of control and the T/C (dose: 400.0 mg/kg/injection, schedule: Q04DX003 (ip), vehicle: other) is reported as 177 % of control.
In the case of Cc1ccc2ncccc2c1N (tested in a mixture with another compound), the T/C (dose: 6.25 mg/kg/injection, schedule: Q01DX009 (ip), vehicle: gum acacia) is reported as 106 % of control, the T/C (dose: 12.5 mg/kg/injection, schedule: Q01DX009 (ip), vehicle: gum acacia) is reported as 113 % of control and the T/C (dose: 25.0 mg/kg/injection, schedule: Q01DX009 (ip), vehicle: gum acacia) is reported as 107 % of control. For the same compound, the T/C (dose: 50.0 mg/kg/injection, schedule: Q01DX009 (ip), vehicle: gum acacia) was 108 % of control.
CCCCCc1cc(O)cc2c1Oc1cc(O)cc(C(=O)CCCC)c1C(=O)O2 was tested, and the T/C (dose: 50.0 mg/kg/injection, schedule: Q01DX005 (ip), vehicle: saline with Tween-80) was 98 % of control, the T/C (dose: 100.0 mg/kg/injection, schedule: Q01DX005 (ip), vehicle: saline with Tween-80) was 100 % of control and the T/C (dose: 200.0 mg/kg/injection, schedule: Q01DX005 (ip), vehicle: saline with Tween-80) was 107 % of control.
O=C1COC(c2ccccc2O)=NN1CCCN1CCCC1 was tested, and the T/C [5] was 100 % of control, the T/C [6] was 100 % of control and the T/C (dose: 50.0 mg/kg/injection, schedule: Q01DX001 (ip), vehicle: saline) was 107 % of control. For the same compound, the T/C (dose: 100.0 mg/kg/injection, schedule: Q01DX001 (ip), vehicle: saline) was 103 % of control.
C/C(=N\NC(=S)N1CCCC1)c1ccc[nH]1 was tested, and the T/C [10] was 102 % of control, the T/C [11] was 114 % of control and the T/C [12] was 89 % of control.
O=C(O)Cc1c(-c2ccccc2)n[nH]c1-c1[nH]nc(-c2ccccc2)c1CC(=O)O was tested, and the T/C (dose: 60.0 mg/kg/injection, schedule: Q01DX005 (ip), vehicle: saline) was 95 % of control, the T/C (dose: 120.0 mg/kg/injection, schedule: Q01DX005 (ip), vehicle: saline) was 95 % of control and the T/C (dose: 240.0 mg/kg/injection, schedule: Q01DX005 (ip), vehicle: saline) was 104 % of control.
COC1=C(N=[N+]=[N-])C(=O)c2ncccc2C1=O was tested, and the T/C (dose: 0.63 mg/kg/injection, schedule: Q01DX009 (ip), vehicle: DMSO) was 100 % of control, the T/C (dose: 1.25 mg/kg/injection, schedule: Q01DX009 (ip), vehicle: DMSO) was 100 % of control and the T/C (dose: 1.56 mg/kg/injection, schedule: Q01DX009 (ip), vehicle: saline with Tween-80) was 95 % of control. The T/C (dose: 2.5 mg/kg/injection, schedule: Q01DX009 (ip), vehicle: DMSO) was 107 % of control, the T/C (dose: 3.12 mg/kg/injection, schedule: Q01DX009 (ip), vehicle: saline with Tween-80) was 98 % of control and the T/C (dose: 5.0 mg/kg/injection, schedule: Q01DX009 (ip), vehicle: DMSO) was 100 % of control.
Cc1nnc2c([Se])nccn12 was tested, and the T/C (dose: 100.0 mg/kg/injection, schedule: Q01DX001 (ip), vehicle: saline with Tween-80) was 99 % of control and the T/C (dose: 200.0 mg/kg/injection, schedule: Q01DX001 (ip), vehicle: saline with Tween-80) was 93 % of control.
In the case of O=C(NCCCCN1CC1)C(=O)NCCCCN1CC1, the T/C (dose: 0.78 mg/kg/injection, schedule: Q04DX003 (ip), vehicle: Klucel (hydroxypropylcellulose) (HPC)) is reported as 120 % of control, the T/C (dose: 3.12 mg/kg/injection, schedule: Q04DX003 (ip), vehicle: Klucel (hydroxypropylcellulose) (HPC)) is reported as 162 % of control and the T/C (dose: 6.25 mg/kg/injection, schedule: Q04DX003 (ip), vehicle: Klucel (hydroxypropylcellulose) (HPC)) is reported as 178 % of control.
For COc1cccc(C(Nc2nncs2)Nc2nncs2)c1OC, the T/C (dose: 60.0 mg/kg/injection, schedule: Q01DX005 (ip), vehicle: saline with Tween-80) was 87 % of control, the T/C (dose: 120.0 mg/kg/injection, schedule: Q01DX005 (ip), vehicle: saline with Tween-80) was 91 % of control and the T/C (dose: 240.0 mg/kg/injection, schedule: Q01DX005 (ip), vehicle: saline with Tween-80) was 100 % of control.
With Nc1nc2ncc(CCCl)cc2c(=O)[nH]1 the T/C [10] was 102 % of control, the T/C [11] was 123 % of control and the T/C [12] was 107 % of control.
N=c1nc(-c2ccccc2)c(-c2ccccc2)nn1CC(=O)c1ccc(Br)cc1 was tested, and the T/C [10] was 111 % of control and the T/C [11] was 94 % of control.
For O=C(O)/C=C/c1csc(-c2ccc(Cl)cc2)n1, the T/C [4] was 88 % of control, the T/C [2] was 88 % of control and the T/C [3] was 106 % of control.
With Cc1cc(N/N=C/c2ccc(N(CCCl)CCCl)cc2)nc2ccc(Cl)cc12 the T/C (dose: 50.0 mg/kg/injection, schedule: Q01DX009 (ip), vehicle: saline) was 97 % of control, the T/C (dose: 100.0 mg/kg/injection, schedule: Q01DX009 (ip), vehicle: saline) was 100 % of control and the T/C (dose: 200.0 mg/kg/injection, schedule: Q01DX009 (ip), vehicle: saline) was 100 % of control.
With C/C(=C/c1cc2c(cc1Br)OCO2)[N+](=O)[O-] the T/C (dose: 100.0 mg/kg/injection, schedule: Q04DX003 (ip), vehicle: saline with Tween-80) was 108 % of control and the T/C (dose: 200.0 mg/kg/injection, schedule: Q04DX003 (ip), vehicle: saline with Tween-80) was 118 % of control.
With CCN(CC)CCNc1ccc(COC(N)=O)c2sc3ccccc3c(=O)c12 the T/C (dose: 100.0 mg/kg/injection, schedule: Q04DX003 (ip), vehicle: saline) was 117 % of control and the T/C (dose: 200.0 mg/kg/injection, schedule: Q04DX003 (ip), vehicle: saline) was 122 % of control.
With COc1cc2c(cc1OC)C(=O)CCC2 the T/C (dose: 25.0 mg/kg/injection, schedule: Q01DX009 (ip), vehicle: Klucel (hydroxypropylcellulose) (HPC)) was 105 % of control, the T/C [7] was 100 % of control and the T/C [8] was 106 % of control. For the same compound, the T/C [9] was 99 % of control.

— PubChem BioAssay AID330 (DTP/NCI, 2004)
